Measurements reported in patent US20240148821A1, “PHARMACEUTICAL USE OF CYCLIC PEPTIDE COMPOUND” (CHUGAI SEIYAKU KABUSHIKI KAISHA, priority 2021, published 2024).
Numbered stars: 1 amine (or outer) side, 2 acyl side, 3 side chain; on linkers, the order of the positions; unused ones are H or OH. Bridge positions count the residues as written; N and C are the ends. Square brackets hold non-standard residues; d marks the D form. Peptide text beside a SMILES is read from it. * marks the point of attachment. hPhe(3,5-F2-4-CF3) = N[C@@H](CCc1cc(F)c(C(F)(F)F)c(F)c1)C(=O)O; hPhe(3-Cl-4-CF3) = N[C@@H](CCc1ccc(C(F)(F)F)c(Cl)c1)C(=O)O; hPhe(3-F,4-CF3) = N[C@@H](CCc1ccc(C(F)(F)F)c(F)c1)C(=O)O; NEtPhe(4-CF3) = CCN[C@@H](Cc1ccc(C(F)(F)F)cc1)C(=O)O; NMePhe(4-CF3) = CN[C@@H](Cc1ccc(C(F)(F)F)cc1)C(=O)O; hPhe(4-Cl) = N[C@@H](CCc1ccc(Cl)cc1)C(=O)O; NMedβ3hAla = C[C@H](CC(=O)[*:2])N(C)[*:1]; NMeGly(cPent) = CN[C@H](C(=O)O)C1CCCC1; Pro(4,4-F2) = O=C(O)[C@@H]1CC(F)(F)CN1; NMeCha = CN[C@@H](CC1CCCCC1)C(=O)O; Gly(N-(CH2)2OEt) = CCOCCNCC(=O)O; NMeChg = CN[C@H](C(=O)O)C1CCCCC1; NMeI = CC[C@H](C)[C@H](NC)C(=O)O; NMeD = CN[C@@H](CC(=O)O)C(=O)O; NMeL = CN[C@@H](CC(C)C)C(=O)O; NMeV = CN[C@H](C(=O)O)C(C)C; d(β3hA) = C[C@@H](N)CC(=O)O; NMeS = CN[C@@H](CO)C(=O)O; NAllylGly = C=CCNCC(=O)O; NMeA = CN[C@@H](C)C(=O)O; Piperidide = C1CCN(*)CC1; Pyrrolidide = C1CCN(*)C1; Ac5c = NC1(C(=O)O)CCCC1; Aze = O=C(O)[C@@H]1CCN1; Cyclobutyl = C1CC(*)C1; Sar = CNCC(=O)O

The compounds below were run against protein-protein interaction between Kras and SOS1 (biotin-tagged human Kras loaded with GDP, His-tagged human SOS1) (Homo sapiens (Human), UniProt P01116, G12D) (assay: Protein-protein interaction inhibition between Kras and SOS1 (KrasG12D-SOS PPI) using AlphaScreen). Details: AlphaScreen; biotin-tagged human Kras loaded with GDP, His-tagged human SOS1; read-out: KRAS G12D-SOS PPI IC50.
Format: biochemical

First: CC[C@H](C)[C@@H]1NC(=O)[C@H](CC(C)C)N(C)C(=O)C[C@@H](C(=O)N2CCCC2)N(C)C(=O)[C@H]([C@@H](C)CC)N(C)C(=O)C2(CCCC2)NC(=O)[C@@H]2CCCN2C(=O)[C@H](CCc2ccc(C(F)(F)F)c(F)c2)NC(=O)CN(C)C(=O)[C@H](CC2CCCCC2)N(C)C(=O)[C@@H]2CCN2C(=O)[C@H](C)N(C)C1=O [Compound 868] ([NMeL]I[NMeA][Aze][NMeCha][Sar][hPhe(3-F,4-CF3)]P[Ac5c][NMeI][NMeD]-Pyrrolidide; lactam N-11)
Second: CC[C@H](C)[C@@H]1NC(=O)[C@H](CC(C)C)N(C)C(=O)C[C@@H](C(=O)N2CCCCC2)N(C)C(=O)[C@H]([C@@H](C)CC)N(C)C(=O)C2(CCCC2)NC(=O)[C@@H]2CCCN2C(=O)[C@H](CCc2ccc(C(F)(F)F)c(Cl)c2)NC(=O)CN(C)C(=O)[C@H](COC2CCC2)N(C)C(=O)[C@@H]2CCN2C(=O)[C@H](C)N(C)C1=O [Compound 885] ([NMeL]I[NMeA][Aze][NMeS](Cyclobutyl)[Sar][hPhe(3-Cl-4-CF3)]P[Ac5c][NMeI][NMeD]-Piperidide; lactam N-11)
The IC50 of the first is 1.5-fold higher: 2.9 nM for the first, 1.9 nM for the second. The second is the more potent here.

`CCOCCN1CC(=O)NC2(CCCC2)C(=O)N(C)[C@@H](C2CCCCC2)C(=O)N(C)[C@H](C(=O)N2CCCCC2)CC(=O)N(C)[C@@H](CC(C)C)C(=O)N[C@@H]([C@@H](C)CC)C(=O)N(C)CC(=O)N(C)CC(=O)N(C)[C@@H](CC2CCCCC2)C(=O)N(C)CC(=O)N[C@@H](CCc2ccc(C(F)(F)F)c(Cl)c2)C1=O` [Compound 872, (11S,17S,26S,29S,33S,36S)-11-[2-[3-chloro-4-(trifluoromethyl)phenyl]ethyl]-36-cyclohexyl-17-(cyclohexylmethyl)-9-(2-ethoxyethyl)-29-isobutyl-15,18,21,24,30,34,37-heptamethyl-26-[(1S)-1-methylpropyl]-33-(piperidine-1-carbonyl)-6,9,12,15,18,21,24,27,30,34,37-undecazaspiro[4.33]octatriacontane-7,10,13,16,19,22,25,28,31,35,38-undecone] ([NMeL]I[Sar][Sar][NMeCha][Sar][hPhe(3-Cl-4-CF3)][Gly(N-(CH2)2OEt)][Ac5c][NMeChg][NMeD]-Piperidide; lactam N-11) and `C=CCN1CC(=O)NC2(CCCC2)C(=O)N(C)[C@@H](C2CCCCC2)C(=O)N(C)[C@H](C(=O)N2CCCCC2)CC(=O)N(C)[C@@H](CC(C)C)C(=O)N[C@@H]([C@@H](C)CC)C(=O)N(C)CC(=O)N(C)CC(=O)N(C)[C@@H](CC2CCCCC2)C(=O)N(C)CC(=O)N[C@@H](CCc2ccc(C(F)(F)F)c(Cl)c2)C1=O` [Compound 899] ([NMeL]I[Sar][Sar][NMeCha][Sar][hPhe(3-Cl-4-CF3)][NAllylGly][Ac5c][NMeChg][NMeD]-Piperidide; lactam N-11 (inferred); C-terminus assumed) are the same in IC50: 1.9 nM for the first, 1.9 nM for the second.

Compared with `CC[C@H](C)[C@@H]1NC(=O)[C@H](C2CCCCC2)N(C)C(=O)C[C@@H](C)NC(=O)[C@H](C(C)C)N(C)C(=O)C2(CCCC2)NC(=O)[C@@H]2CCCN2C(=O)[C@H](CCc2ccc(C(F)(F)F)c(Cl)c2)NC(=O)CN(C)C(=O)[C@H](CC2CCCCC2)N(C)C(=O)[C@@H]2CCN2C(=O)[C@H](C)N(C)C1=O` [Compound 873] (cyclo([Ac5c][NMeV][d(β3hA)][NMeChg]I[NMeA][Aze][NMeCha][Sar][hPhe(3-Cl-4-CF3)]P)), `CC[C@H](C)[C@@H]1NC(=O)[C@H](CC(C)C)N(C)C(=O)C[C@@H](C)N(C)C(=O)[C@H]([C@@H](C)CC)N(C)C(=O)C2(CCCC2)NC(=O)[C@@H]2CCCN2C(=O)[C@H](CCc2ccc(C(F)(F)F)c(F)c2)NC(=O)CN(C)C(=O)[C@H](C2CCCC2)N(C)C(=O)[C@@H]2CCN2C(=O)[C@H](C)N(C)C1=O` [Compound 909] (cyclo([Ac5c][NMeI][NMedβ3hAla][NMeL]I[NMeA][Aze][NMeGly(cPent)][Sar][hPhe(3-F,4-CF3)]P)) is 2.5-fold lower in IC50: 51 nM for the first, 20 nM for the second. The second is the more potent here.

Compared with `CC[C@H](C)[C@@H]1NC(=O)[C@H](CC(C)C)N(C)C(=O)C[C@@H](C)N(C)C(=O)[C@H]([C@@H](C)CC)N(C)C(=O)C2(CCCC2)NC(=O)[C@@H]2CCCN2C(=O)[C@H](CCc2ccc(C(F)(F)F)c(Cl)c2)NC(=O)CN(C)C(=O)[C@H](Cc2ccc(C(F)(F)F)cc2)N(CC)C(=O)[C@@H]2CCN2C(=O)[C@H](C)N(C)C1=O` [Compound 898] (cyclo([Ac5c][NMeI][NMedβ3hAla][NMeL]I[NMeA][Aze][NEtPhe(4-CF3)][Sar][hPhe(3-Cl-4-CF3)]P)), `CC[C@H](C)[C@@H]1NC(=O)[C@H](CC(C)C)N(C)C(=O)C[C@@H](C)N(C)C(=O)[C@H](C2CCCC2)N(C)C(=O)C2(CCCC2)NC(=O)[C@@H]2CC(F)(F)CN2C(=O)[C@H](CCc2cc(F)c(C(F)(F)F)c(F)c2)NC(=O)CN(C)C(=O)[C@H](Cc2ccc(C(F)(F)F)cc2)N(C)C(=O)[C@@H]2CCN2C(=O)[C@H](C)N(C)C1=O` [Compound 900] (cyclo([Ac5c][NMeGly(cPent)][NMedβ3hAla][NMeL]I[NMeA][Aze][NMePhe(4-CF3)][Sar][hPhe(3,5-F2-4-CF3)][Pro(4,4-F2)])) is 14-fold lower in IC50: 12 nM for the first, 0.84 nM for the second. The second is the more potent here.

`CC[C@H](C)[C@@H]1NC(=O)[C@H](CC(C)C)N(C)C(=O)C[C@@H](C(=O)N2CCCCC2)N(C)C(=O)[C@H](C(C)C)N(C)C(=O)C2(CCCC2)NC(=O)[C@@H]2CCCN2C(=O)[C@H](CCc2ccc(Cl)cc2)NC(=O)CN(C)C(=O)[C@H](CC2CCCCC2)N(C)C(=O)[C@@H]2CCN2C(=O)CN(C)C1=O` [Compound 916] ([NMeL]I[Sar][Aze][NMeCha][Sar][hPhe(4-Cl)]P[Ac5c][NMeV][NMeD]-Piperidide; lactam N-11) showed an IC50 of 42 nM.
